Tests used:
[1] = molecular target: SRSF protein kinase 2 (Homo sapiens) (UniProt P78362); test: Residual activity of SRPK2 at 10 uM by microplate scintillation counting
[2] = molecular target: High affinity nerve growth factor receptor (Homo sapiens) (UniProt P04629); test: Residual activity of TRK-A at 10 uM by microplate scintillation counting
[3] = molecular target: Tyrosine-protein kinase HCK (Homo sapiens) (UniProt P08631); test: Residual activity of HCK at 1 uM by microplate scintillation counting
[4] = molecular target: T1, NUAK family SNF1-like kinase 2 (Homo sapiens) (UniProt Q9H093); test: Residual activity of SNARK at 10 uM by microplate scintillation counting
T1 sequence (whole entry): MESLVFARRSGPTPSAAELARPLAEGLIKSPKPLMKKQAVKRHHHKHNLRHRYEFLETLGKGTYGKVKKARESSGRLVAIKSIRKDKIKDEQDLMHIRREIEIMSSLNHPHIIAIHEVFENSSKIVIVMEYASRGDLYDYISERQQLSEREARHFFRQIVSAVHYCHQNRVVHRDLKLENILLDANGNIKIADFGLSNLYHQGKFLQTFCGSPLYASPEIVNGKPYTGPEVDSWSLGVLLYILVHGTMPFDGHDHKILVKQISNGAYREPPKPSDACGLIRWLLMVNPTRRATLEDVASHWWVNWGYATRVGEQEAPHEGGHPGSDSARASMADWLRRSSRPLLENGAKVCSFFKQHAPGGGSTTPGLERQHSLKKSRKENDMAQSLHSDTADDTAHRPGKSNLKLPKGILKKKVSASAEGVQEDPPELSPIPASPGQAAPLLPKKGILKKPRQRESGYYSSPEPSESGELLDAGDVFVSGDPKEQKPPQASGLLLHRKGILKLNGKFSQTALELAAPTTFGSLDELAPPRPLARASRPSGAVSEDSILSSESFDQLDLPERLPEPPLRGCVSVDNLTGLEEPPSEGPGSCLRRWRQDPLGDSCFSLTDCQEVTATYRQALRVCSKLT

[5] = molecular target: Tyrosine-protein kinase Blk (Homo sapiens) (UniProt P51451); test: Residual activity of BLK at 1 uM by microplate scintillation counting
Sequence of Tyrosine-protein kinase Blk (Homo sapiens) (P51451 2-505 limits assumed): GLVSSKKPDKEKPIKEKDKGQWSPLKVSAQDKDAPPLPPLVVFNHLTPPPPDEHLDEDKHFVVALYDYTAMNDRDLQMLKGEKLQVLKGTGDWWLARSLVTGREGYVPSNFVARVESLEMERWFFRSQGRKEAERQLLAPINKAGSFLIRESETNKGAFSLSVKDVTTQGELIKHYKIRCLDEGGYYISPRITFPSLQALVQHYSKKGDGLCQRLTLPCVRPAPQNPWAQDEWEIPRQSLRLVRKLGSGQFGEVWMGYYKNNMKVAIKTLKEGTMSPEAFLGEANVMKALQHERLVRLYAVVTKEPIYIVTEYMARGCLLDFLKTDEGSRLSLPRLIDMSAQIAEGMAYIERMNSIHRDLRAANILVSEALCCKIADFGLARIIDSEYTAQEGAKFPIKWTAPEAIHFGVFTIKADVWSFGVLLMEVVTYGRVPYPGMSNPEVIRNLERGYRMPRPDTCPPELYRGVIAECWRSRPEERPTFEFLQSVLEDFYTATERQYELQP

[6] = molecular target: Interleukin-1 receptor-associated kinase 1 (Homo sapiens) (UniProt P51617); test: Residual activity of IRAKI at 1 uM by microplate scintillation counting
Sequence of Interleukin-1 receptor-associated kinase 1 (Homo sapiens) (P51617 whole entry, looked up): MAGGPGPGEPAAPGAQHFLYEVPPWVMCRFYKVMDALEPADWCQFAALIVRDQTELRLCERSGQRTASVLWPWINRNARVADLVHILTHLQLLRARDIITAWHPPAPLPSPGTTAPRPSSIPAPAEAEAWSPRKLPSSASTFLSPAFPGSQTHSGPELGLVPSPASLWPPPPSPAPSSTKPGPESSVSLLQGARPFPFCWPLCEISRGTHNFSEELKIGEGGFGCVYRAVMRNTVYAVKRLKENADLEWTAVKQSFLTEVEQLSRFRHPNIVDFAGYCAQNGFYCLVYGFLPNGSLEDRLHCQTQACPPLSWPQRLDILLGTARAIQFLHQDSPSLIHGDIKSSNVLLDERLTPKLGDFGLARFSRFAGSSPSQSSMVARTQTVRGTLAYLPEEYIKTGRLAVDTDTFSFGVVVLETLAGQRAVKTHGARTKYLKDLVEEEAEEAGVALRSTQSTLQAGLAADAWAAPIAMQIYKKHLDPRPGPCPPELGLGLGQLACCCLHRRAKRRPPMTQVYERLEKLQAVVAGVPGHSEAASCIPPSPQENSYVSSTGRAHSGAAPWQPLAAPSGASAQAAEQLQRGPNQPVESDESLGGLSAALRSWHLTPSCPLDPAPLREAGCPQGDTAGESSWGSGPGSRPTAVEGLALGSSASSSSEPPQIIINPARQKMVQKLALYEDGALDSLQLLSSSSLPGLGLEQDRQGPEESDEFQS

[7] = molecular target: Protein kinase C beta type (Homo sapiens) (UniProt P05771); test: Residual activity of PKCbeta1 at 10 uM by microplate scintillation counting
[8] = molecular target: CDK9/cyclin T1 (Homo sapiens) (UniProt O60563+P50750); test: Residual activity of CDK9/Cyclin T at 10 uM by microplate scintillation counting; format: protein-complex assay
[9] = molecular target: T2, Serine/threonine-protein kinase Nek3 (Homo sapiens) (UniProt P51956); test: Residual activity of NEK3 at 0.1 uM by microplate scintillation counting
T2 sequence (whole entry): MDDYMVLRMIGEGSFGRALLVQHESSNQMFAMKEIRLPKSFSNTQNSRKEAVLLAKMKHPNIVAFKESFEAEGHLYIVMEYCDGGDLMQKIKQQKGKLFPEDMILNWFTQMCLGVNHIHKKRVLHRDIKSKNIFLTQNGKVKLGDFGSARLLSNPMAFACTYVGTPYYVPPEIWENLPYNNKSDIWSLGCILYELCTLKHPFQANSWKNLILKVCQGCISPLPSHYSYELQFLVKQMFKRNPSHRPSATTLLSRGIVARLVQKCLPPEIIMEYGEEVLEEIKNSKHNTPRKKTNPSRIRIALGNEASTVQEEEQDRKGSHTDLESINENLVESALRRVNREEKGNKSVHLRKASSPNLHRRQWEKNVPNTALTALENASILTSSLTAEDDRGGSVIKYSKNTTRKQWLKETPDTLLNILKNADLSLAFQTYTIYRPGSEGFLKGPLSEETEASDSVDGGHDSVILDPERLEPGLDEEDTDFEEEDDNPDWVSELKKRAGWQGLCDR

[10] = molecular target: CDK4/Cyclin D3 (Homo sapiens) (UniProt P11802+P30281); test: Residual activity of CDK4/Cyclin D3 at 0.1 uM by microplate scintillation counting; format: protein-complex assay
[11] = molecular target: T3, cGMP-dependent protein kinase 2 (Homo sapiens) (UniProt Q13237); test: Residual activity of PRKG2 at 0.1 uM by microplate scintillation counting
T3 sequence (whole entry): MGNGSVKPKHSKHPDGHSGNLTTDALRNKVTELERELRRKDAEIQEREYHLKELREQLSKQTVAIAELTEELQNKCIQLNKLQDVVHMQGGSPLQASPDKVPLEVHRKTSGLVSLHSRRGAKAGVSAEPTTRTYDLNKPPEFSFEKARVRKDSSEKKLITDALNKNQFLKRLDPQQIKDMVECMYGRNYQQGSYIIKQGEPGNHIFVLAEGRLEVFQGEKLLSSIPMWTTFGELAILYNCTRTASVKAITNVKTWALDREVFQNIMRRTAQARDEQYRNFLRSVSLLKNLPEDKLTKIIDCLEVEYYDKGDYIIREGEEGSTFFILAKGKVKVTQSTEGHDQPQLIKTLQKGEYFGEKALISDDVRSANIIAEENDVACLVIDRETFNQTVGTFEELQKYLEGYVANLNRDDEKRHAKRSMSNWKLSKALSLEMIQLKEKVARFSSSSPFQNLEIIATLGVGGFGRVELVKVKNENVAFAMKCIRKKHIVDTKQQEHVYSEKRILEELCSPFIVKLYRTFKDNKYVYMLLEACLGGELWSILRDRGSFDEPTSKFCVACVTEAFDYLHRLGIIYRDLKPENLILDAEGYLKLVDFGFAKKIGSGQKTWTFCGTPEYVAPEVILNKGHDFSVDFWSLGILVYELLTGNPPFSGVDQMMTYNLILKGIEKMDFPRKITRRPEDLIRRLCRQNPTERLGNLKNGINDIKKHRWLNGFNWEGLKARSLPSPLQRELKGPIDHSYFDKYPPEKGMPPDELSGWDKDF

[12] = test system: Fibroblast growth factor receptor 1 (Homo sapiens), P11362 [V561M]; test: Residual activity of FGFR1 V561M mutant at 1 uM by microplate scintillation counting
Sequence of Fibroblast growth factor receptor 1 (Homo sapiens), P11362 [V561M] (P11362 whole entry V561M): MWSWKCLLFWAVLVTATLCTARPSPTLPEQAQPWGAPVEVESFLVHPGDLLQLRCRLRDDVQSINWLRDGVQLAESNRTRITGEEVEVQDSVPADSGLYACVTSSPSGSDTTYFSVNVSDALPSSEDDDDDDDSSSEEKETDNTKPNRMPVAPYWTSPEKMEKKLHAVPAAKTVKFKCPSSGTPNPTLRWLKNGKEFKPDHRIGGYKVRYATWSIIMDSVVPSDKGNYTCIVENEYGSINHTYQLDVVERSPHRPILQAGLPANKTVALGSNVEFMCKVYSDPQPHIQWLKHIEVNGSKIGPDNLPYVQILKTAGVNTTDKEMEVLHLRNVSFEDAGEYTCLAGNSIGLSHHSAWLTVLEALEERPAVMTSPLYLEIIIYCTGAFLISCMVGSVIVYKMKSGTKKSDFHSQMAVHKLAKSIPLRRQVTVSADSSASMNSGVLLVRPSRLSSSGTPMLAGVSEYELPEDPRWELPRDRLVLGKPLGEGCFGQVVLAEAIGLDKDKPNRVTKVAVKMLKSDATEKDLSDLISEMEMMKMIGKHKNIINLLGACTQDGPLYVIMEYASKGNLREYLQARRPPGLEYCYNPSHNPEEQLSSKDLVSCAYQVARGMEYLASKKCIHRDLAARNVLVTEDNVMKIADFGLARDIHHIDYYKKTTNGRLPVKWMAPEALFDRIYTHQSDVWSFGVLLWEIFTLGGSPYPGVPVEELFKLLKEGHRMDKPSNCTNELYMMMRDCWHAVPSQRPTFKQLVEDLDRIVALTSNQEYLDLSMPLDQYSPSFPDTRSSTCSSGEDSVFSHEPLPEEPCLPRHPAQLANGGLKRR

[13] = molecular target: Cyclin-dependent kinase 2/cyclin A (Homo sapiens) (UniProt P24941+P20248+P78396); test: Residual activity of CDK2/Cyclin A at 0.1 uM by microplate scintillation counting; format: protein-complex assay
[14] = test system: RAF proto-oncogene serine/threonine-protein kinase (Homo sapiens), P04049 [Y340D,Y341D]; test: Residual activity of RAF1 Y340D/Y341D mutant at 1 uM by microplate scintillation counting
[15] = molecular target: Serine/threonine-protein kinase 26 (Homo sapiens) (UniProt Q9P289); test: Residual activity of MST4 at 0.1 uM by microplate scintillation counting
Sequence of Serine/threonine-protein kinase 26 (Homo sapiens) (Q9P289 2-416 limits assumed): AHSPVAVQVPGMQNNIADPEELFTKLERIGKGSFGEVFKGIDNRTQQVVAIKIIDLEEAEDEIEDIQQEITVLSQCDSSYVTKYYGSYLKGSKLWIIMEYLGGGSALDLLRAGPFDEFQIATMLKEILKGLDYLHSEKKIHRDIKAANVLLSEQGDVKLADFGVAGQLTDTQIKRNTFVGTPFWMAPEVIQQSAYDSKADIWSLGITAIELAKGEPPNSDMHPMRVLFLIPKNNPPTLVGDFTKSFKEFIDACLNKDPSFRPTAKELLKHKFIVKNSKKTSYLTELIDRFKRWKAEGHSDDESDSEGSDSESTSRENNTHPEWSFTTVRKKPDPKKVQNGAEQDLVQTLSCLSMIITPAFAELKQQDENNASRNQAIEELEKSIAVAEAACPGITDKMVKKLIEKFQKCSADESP

[16] = molecular target: Serine/threonine-protein kinase MRCK beta (Homo sapiens) (UniProt Q9Y5S2); test: Residual activity of CDC42BPB at 10 uM by microplate scintillation counting
Sequence of Serine/threonine-protein kinase MRCK beta (Homo sapiens) (Q9Y5S2 whole entry): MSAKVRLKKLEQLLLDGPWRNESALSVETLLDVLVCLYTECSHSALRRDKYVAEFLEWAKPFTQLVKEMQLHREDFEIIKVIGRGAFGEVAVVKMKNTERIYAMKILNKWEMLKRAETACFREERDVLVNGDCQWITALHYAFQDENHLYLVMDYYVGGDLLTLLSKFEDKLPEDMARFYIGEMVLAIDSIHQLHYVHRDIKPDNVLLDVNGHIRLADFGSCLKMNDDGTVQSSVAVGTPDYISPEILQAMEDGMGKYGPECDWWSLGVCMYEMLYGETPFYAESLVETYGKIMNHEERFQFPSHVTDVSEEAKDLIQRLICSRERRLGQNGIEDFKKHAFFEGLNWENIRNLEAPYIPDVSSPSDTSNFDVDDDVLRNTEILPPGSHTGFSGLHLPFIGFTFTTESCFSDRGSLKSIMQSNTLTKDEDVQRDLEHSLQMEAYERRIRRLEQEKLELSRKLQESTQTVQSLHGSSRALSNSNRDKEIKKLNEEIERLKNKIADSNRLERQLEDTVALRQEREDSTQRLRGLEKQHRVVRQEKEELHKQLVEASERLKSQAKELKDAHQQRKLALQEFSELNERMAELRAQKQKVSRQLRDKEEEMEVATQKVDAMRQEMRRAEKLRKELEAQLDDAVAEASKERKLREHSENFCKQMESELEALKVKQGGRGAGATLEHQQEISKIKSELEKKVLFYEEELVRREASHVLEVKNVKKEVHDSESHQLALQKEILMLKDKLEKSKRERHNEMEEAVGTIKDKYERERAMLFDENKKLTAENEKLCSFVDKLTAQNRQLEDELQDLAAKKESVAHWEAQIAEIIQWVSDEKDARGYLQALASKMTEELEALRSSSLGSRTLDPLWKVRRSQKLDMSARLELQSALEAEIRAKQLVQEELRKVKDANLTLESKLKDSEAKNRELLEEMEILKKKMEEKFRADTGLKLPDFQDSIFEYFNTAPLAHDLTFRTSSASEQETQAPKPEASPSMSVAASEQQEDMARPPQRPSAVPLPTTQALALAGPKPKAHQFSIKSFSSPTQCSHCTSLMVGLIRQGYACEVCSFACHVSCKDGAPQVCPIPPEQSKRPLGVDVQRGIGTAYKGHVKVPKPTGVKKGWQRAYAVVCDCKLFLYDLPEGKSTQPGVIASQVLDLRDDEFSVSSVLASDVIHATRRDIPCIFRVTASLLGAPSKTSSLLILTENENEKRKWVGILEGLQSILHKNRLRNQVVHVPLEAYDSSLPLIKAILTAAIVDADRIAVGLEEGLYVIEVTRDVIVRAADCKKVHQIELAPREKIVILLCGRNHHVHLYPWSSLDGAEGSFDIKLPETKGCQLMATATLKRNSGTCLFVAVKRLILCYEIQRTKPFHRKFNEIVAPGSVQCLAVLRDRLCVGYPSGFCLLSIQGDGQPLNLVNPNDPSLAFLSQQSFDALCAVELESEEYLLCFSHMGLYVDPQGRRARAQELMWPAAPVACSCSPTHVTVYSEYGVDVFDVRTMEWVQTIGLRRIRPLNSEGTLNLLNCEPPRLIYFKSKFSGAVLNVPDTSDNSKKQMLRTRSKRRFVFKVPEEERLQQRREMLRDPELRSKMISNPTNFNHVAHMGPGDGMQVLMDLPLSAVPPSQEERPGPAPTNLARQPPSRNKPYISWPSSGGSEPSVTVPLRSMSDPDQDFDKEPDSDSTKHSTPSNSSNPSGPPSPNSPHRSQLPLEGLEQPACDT

Sequence of High affinity nerve growth factor receptor (Homo sapiens) (P04629 33-796 limits assumed): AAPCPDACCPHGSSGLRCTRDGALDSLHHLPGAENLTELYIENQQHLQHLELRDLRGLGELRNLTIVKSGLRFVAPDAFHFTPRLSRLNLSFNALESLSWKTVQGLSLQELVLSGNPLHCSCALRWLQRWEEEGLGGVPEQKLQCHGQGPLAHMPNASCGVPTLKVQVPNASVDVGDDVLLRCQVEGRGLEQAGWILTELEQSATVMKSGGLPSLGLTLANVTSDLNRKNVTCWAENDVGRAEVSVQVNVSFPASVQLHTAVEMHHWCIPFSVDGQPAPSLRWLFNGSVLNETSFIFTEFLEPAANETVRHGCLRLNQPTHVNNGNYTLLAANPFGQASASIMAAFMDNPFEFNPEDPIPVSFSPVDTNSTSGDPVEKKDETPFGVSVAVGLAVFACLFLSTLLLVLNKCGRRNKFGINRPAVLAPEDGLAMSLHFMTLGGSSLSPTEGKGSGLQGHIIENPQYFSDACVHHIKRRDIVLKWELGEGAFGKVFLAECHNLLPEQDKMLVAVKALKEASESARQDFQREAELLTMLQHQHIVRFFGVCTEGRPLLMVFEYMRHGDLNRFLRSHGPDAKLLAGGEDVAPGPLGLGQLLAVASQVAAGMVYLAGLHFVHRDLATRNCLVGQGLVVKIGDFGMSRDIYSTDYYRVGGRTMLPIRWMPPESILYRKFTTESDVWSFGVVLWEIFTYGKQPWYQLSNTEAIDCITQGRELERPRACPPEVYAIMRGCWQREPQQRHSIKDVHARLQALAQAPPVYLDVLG

residual activity [1] | residual activity [2] | residual activity [3] | residual activity [4] | residual activity [5] | residual activity [6] | residual activity [7] | residual activity [8] | residual activity [9] | residual activity [10] | residual activity [11] | residual activity [12] | residual activity [13] | residual activity [14] | residual activity [15] | residual activity [16] | SMILES
128% | 55% | 116% | 82% | 64% | 58% | 73% | 107% | 96% | 80% | 84% | 102% | 96% | 90% | 93% | 82% | COc1cc2c(Oc3ccc(-c4nc5ccccc5s4)cc3)ncnc2cc1OCCCN1CCCC1
100% | 34% | 99% | 62% | 58% | 93% | 57% | 107% | 93% | 82% | 86% | 93% | 100% | 104% | 107% | 102% | COc1cc2c(Oc3ccc(-c4nc5ccccc5s4)cc3F)ncnc2cc1OCCCN1CCN(C)CC1
115% | 81% | 93% | 92% | 63% | 74% | 81% | 109% | 98% | 98% | 87% | 103% | 94% | 97% | 106% | 110% | COc1cc2c(Oc3ccc(-c4nc5ccccc5s4)cc3)ncnc2cc1OCCCN1CCN(C)CC1
